PMC9961272, “Ca^2+-Dependent and -Independent Calmodulin Binding to the Cytoplasmic Loop of Gap Junction Connexins” (International Journal of Molecular Sciences, 2023)
“Also recorded” adds a separate entry of the source.

Columns and labels:
CaM = CaM binding signals of Cx32 CT peptide
[1] = system: gap junction coupling in HUVEC; assay: Multiparametric scrape loading-dye transfer assay (Lucifer Yellow spread); format: cell-based, human; settings: for LY spread in the absence of ionomycin stimulation: peptide 7 µM and 17.9 µM, 8 min pre-treatment + 8 min assay; for LY spread in the absence of ionomycin stimulation / LY spread after ionomycin pre-treatment in the presence of peptide: Ca2+-containing media; for LY spread after ionomycin pre-treatment in the presence of peptide: peptide 7 μM and 17.9 μM, 8 min + 8 min; for LY spread after scratch wounding: 60 min pre-treatment, PMA 100 nM or 18ßGRR 100 µM, 15 min post-scratch
Procedure: (§1) The assay is described in detail in [48]; it is an adaption of the traditional fluorescence microscopy-based scrape loading dye transfer (sl-dt) technique. Briefly, HUVEC in 24 well trays were rinsed into +Ca+Mg-PBS. The solution was then replaced with fresh +Ca+Mg-PBS supplemented with Lucifer Yellow (LY; 1 mg/mL), propidium iodide (PI; 15 μM) and Hoechst 33,342 (90 μM) (dye transfer buffer). Immediately after addition of the dye transfer buffer, 3 parallel cuts in the cell monolayer in the central part of each well in the 24 wells were made using a micro scalpel knife with a flat edge stainless steel blade. The cells were then incubated at 37 °C for 8 or 15 min, as specified, before being washed twice with +Ca+Mg-PBS to remove the dye transfer buffer and then fixed in 3% PFA in PBS. Fresh dye transfer buffer was used for each experiment and the plates were stored in the dark at 4 °C.
For quantitative analysis of dye transfer and cell viability, images were acquired from 2 to 3 regions within each cut (6–9 measurements per well) using an EVOS M5000 microscope (Invitrogen, Waltham, MA, USA) equipped with a 10 × 0.3 NA air objective and EVOS LED light cubes for bright field imaging, FITC, RedX and DAPI. Images were acquired sequentially and exported to ImageJ for processing.
Phorbol 12-myristate 13-acetate (PMA) or 18-β-glycyrrhetinic acid (18BGRR) was made up in dimethysulphoxide (DMSO) to a 10 mM or 50 mM stock, respectively, and diluted into HGM to a final concentration of 100 nM or 100 µM, respectively. Cells were incubated in PMA or 18BGRR acid containing solution for 60 min at 37 °C. The PMA or 18BGRR solution was then carefully removed and the cells were washed once in +Ca+Mg-PBS. The PBS was then replaced with the dye transfer buffer (see above) and immediately 3 parallel cuts were made in the cell monolayer in the central part of each well using a micro scalpel knife with a flat edge stainless steel blade. For each experiment drug treatments were carried out in triplicate wells each with 3 cuts per well. Cells were then processed as described above. For analysis of the Ca^2+ dependency of gap junction coupling, HUVEC were incubated in either +Ca+Mg-PBS (+Ca) or -Ca+Mg +0.2 mM EGTA (-Ca) containing PBS and stimulated with vehicle (0.001% DMSO), or 2 μM ionomycin for 8 min. Cells were then transferred to dye transfer buffer made using +Ca or −Ca PBS, supplemented with vehicle or 2 μM ionomycin, and 3 parallel cuts were made in cell monolayers in each well. Cells were incubated for a further 8 min prior to fixation. […] A stock solution of 3.6 mM was made to generate working concentrations of 6–18 µM.
Data analysis was carried out in the open-source-based software program Fiji ImageJ. A custom-made macro (Cut_Analyzer.ijm) published in the Supplementary Materials to [48] was used for the automated quantitation of gap junction intercellular communication using images acquired for the LY signal. Analysis of total cell number (Hoechst channel) and cell viability (propidium iodide channel) was made using custom made macros ([48] and Supplementary Methods).

TA-CaM = TA-CaM (Homo sapiens, UniProt P0DP23); settings: Ca2+ titration of TA-CaM alone or with peptide
Procedure: The binding curves were fitted to the Hill equation to obtain Kd and Hill coefficient values (n) (Table 2).
The fluorescence was corrected for dilution and [Ca^2+] concentration was calculated using Maxchelator software. The data were fitted to the Hill equation with specific binding (y = Bmax∗x^n/(Kd^n + x^n)) using GraphPad Prism 9.

apo-DA-CaM = apo-DA-CaM (Homo sapiens, UniProt P0DP23, T111C/T35C); assay: Stopped-flow association and dissociation kinetics with apo-DA-CaM (with and without 15% TFE); settings: 500 nM DA-CaM with 10 µM mTrp, 5 mM EGTA, mixed with 300 µM CaM, 20 °C
Procedure: We were interested to see if we can detect apo-CaM binding to Cx CL2 peptides using DA-CaM, the conformation of which is insensitive to [Ca^2+] changes, but which indicates changes in the distance between the N- and C-lobe with high sensitivity.
The kinetics of Ca^2+/DA-CaM and DA-CaM interactions with Cx CL2 peptides was measured using a TgK Scientific KinetAsyst™ double-mixing stopped-flow apparatus (TgK Scientific Ltd., Bradford-on-Avon, UK) in single mixing mode. The fluorescence was excited at 340 nm and the emission was detected by a photomultiplier tube with a long pass filter (>400 nm). […] All concentrations given are those in the mixing chamber. Data shown are averages of 3 to 5 repeats. All experiments were carried out at 20 °C. Data were analysed using Kinetic Studio software (TgK Scientific Ltd., Bradford-on-Avon, UK).

HUVEC [2] = assay: Fura-2 epifluorescence imaging of [Ca2+]i; format: cell-based, human; settings: ionomycin 2 µM, fura-2 loaded HUVEC
Procedure: HUVEC were grown on 24 mm square uncoated glass coverslips in growth medium. For Fura-2 loading, the cells were transferred into Hanks solution (140 mM NaCl, 5 mM KCl, 1.8 mM CaCl2, 2 mM MgCl2, 10 mM glucose, 10 mM HEPES-NaOH pH 7.4) supplemented with 2.5 µM Fura-2AM (Molecular Probes, Eugene, Oregon, USA) diluted from a stock solution of 5 mM Fura-2AM in DMSO with 2.0% Pluoronic F-127. Cells were incubated at room temperature in the dark for 20 min before being transferred into fresh Hanks solution and further maintained in the dark at RT until use. Cells were transferred to the stage of an Olympus IX71 inverted fluorescence microscope and maintained at 32–34 °C. The imaging system comprised an excitation monochromator (Optoscan, Cairn Research), U-Plan-Apo ×100 1.35 NA objective and an Ixon EMCCD camera (Andor). Fura-2 was illuminated sequentially with 355 ± 5 nm and 380 ± 5 nm light and wavelength switching synchronised with image capture using WinFluor software (Dr John Dempster, Strathclyde University). The EMCCD camera was operated in frame transfer mode at full gain and cooled to −70 °C. Full frame (512 by 512 pixels) images were acquired at 30 frames/s. Ionomycin was applied by droplet application.

HUVEC [3] = assay: Cell viability (PI+ cells) in dye transfer assay; format: cell-based; settings: PMA 100 nM or 18ßGRR 100 µM, 60 min; % of PI+ cells
Procedure: as §1, with “The cells were then incubated at 37 °C for 8 or 15 min, as specified, before being washed twice with +Ca+Mg-PBS to remove the dye transfer buffer and then fixed in 3% PFA in PBS. Fresh dye transfer buffer was used for each experiment and the plates were stored in the dark at 4 °C.” left out
Data analysis was carried out in the open-source-based software program Fiji ImageJ. A custom-made macro (Cut_Analyzer.ijm) published in the Supplementary Materials to [48] was used for the automated quantitation of gap junction intercellular communication using images acquired for the LY signal. […]
Analysis of cell number. To determine the number of cells per field of view we counted the number of Hoechst stained nuclei using a simple macro (Nuclei count.ijm) recorded […]
Counting cell nuclei using Fiji ImageJ. […] Images were then converted to a mask, a Watershed applied to identify and separate overlapping nuclei and objects counted using the Analyze particles function. […]
Analysis of cell viability. […] Cell viability was expressed as the fraction of cells negative for PI. […]

| Compound | LY spread in the absence of ionomycin stimulation [1] | LY spread after ionomycin pre-treatment in the presence of peptide ([1]; ionomycin 2 µM) | LY spread after scratch wounding [1] | Cell viability following drug treatments (HUVEC [3]) | also measured |
| --- | --- | --- | --- | --- | --- |
| EINKLLSEQDGSLKDILRRS [Cx32 CT peptide] |  |  |  |  | CaM binding signal (CaM): unable to detect any signals indicating CaM binding |
| N-[myr]-RRKWQKTGHAVRAIGRL-amide [mTrp] | no significant difference in LY spread | reduced the inhibition of LY spread; also recorded: prevented the Ca^2+-induced block |  |  | Hill Coefficient n TA-CaM (TA-CaM): 1.3 ± 0.1; Dissociation from apo-DA-CaM, fast phase (apo-DA-CaM): 130 s⁻¹; Dissociation from apo-DA-CaM, slow phase (apo-DA-CaM): 0.9 s⁻¹ |
| C[C@H](CCC(=O)O)C[C@H](C)C[C@H](C)C(=O)/C=C(\O)[C@H](C)C[C@H](C)C/C=C/[C@@H](C)[C@@H](O)[C@@H](C)[C@@H](O)C[C@@H]1CC[C@@](C)([C@H]2CC[C@@](C)([C@@H](C)O)O2)O1 [ionomycin] |  |  |  |  | Effect on LY spread when external Ca^2+ omitted ([1]; ionomycin 2 µM, 8 min, external Ca2+ omitted): greatly reduced; LY spread after scratch formation ([1]; ionomycin 2 µM, 8 min pre-treatment, external Ca2+ present, 8 min LY spread): significantly reduced the spread of LY; also recorded: completely blocked; Change in [Ca^2+]i (fura-2 ratio) (HUVEC [2]): initial fast increase in [Ca^2+]i |
| CC1(C)[C@@H](O)CC[C@]2(C)[C@H]3C(=O)C=C4[C@@H]5C[C@@](C)(C(=O)O)CC[C@]5(C)CC[C@@]4(C)[C@]3(C)CC[C@@H]12 [18ßGRR, 18-β-glycyrrhetinic acid] |  |  | significantly reduced LY spread | No evidence for decreased cell viability |  |
| CCCCCCCCCCCCCC(=O)O[C@@H]1[C@@H](C)[C@@]2(O)[C@@H](C=C(CO)C[C@]3(O)C(=O)C(C)=C[C@@H]23)[C@@H]2C(C)(C)[C@]12OC(C)=O [PMA, 12-phorbol 13-myristate acetate] |  |  | significantly reduced LY spread | No evidence for decreased cell viability |  |
| N-[myr]-RRKEQKTGHAVRAIGRE-amide [control peptide] | no significant difference in LY spread | significantly reduced LY spread |  |  |  |
